In patent US20240277890A1, “ANTIMICROBIAL ARTICLES COMPRISING POLYURETHANE” (Amicoat AS, priority 2021, published 2024):
Values after ≈ are worked out from the molar mass of the structure shown.

Key:
[1] = tested on: Streptococcus pneumoniae - penicillin-susceptible clinical isolate
[2] = tested on: Enterococcus faecalis vancomycin-resistant (VanA) clinical isolate
[3] = tested on: Group C Streptococcus - antibiotic-susceptible clinical isolate
[4] = tested on: Staphylococcus saprophyticus - antibiotic susceptible clinical isolate
[5] = tested on: Corynebacterium jeikeium - multi-drug resistant clinical isolate
[6] = tested on: Staphylococcus aureus - teicoplanin-intermediate clinical isolate
[7] = tested on: Corynebacterium jeikeium - antibiotic-susceptible clinical isolate
[8] = tested on: Cryptococcus neoformans - G.R. Micro collection
[9] = tested on: MU50 Staphylococcus aureus (MRSA) - VISA type strain
[10] = tested on: Aspergillus niger - G.R. Micro collection
[11] = tested on: Candida albicans ATCC24433 - reference strain
[12] = tested on: Microsporum canis - G.R. Micro collection
[13] = tested on: Enterobacter sp - multi-drug resistant clinical isolate
[14] = tested on: Streptococcus bovis - antibiotic-susceptible clinical isolate
[15] = tested on: Salmonella sp - antibiotic-susceptible clinical isolate; experiment: MIC microbroth dilution (CLSI); type: cell-based
[16] = tested on: Enterobacter sp - antibiotic-susceptible clinical isolate
[17] = tested on: Trichophyton interdigitale - G.R. Micro collection
[18] = tested on: Enterococcus faecalis vancomycin-susceptible clinical isolate
[19] = tested on: Enterococcus faecalis - ATCC 29212 antibiotic-susceptible control strain; conditions: ATCC 29212
[20] = tested on: Enterococcus faecium vancomycin-resistant (VanB) clinical isolate
[21] = tested on: Candida parapsilosis ATCC90018 - reference strain
[22] = tested on: EMRSA1 Staphylococcus aureus (MRSA) - SSCmec type 3; conditions: EMRSA1 - SSCmec type 3
[23] = tested on: Shigella sp - antibiotic-susceptible clinical isolate; experiment: MIC microbroth dilution (CLSI); type: cell-based
[24] = tested on: Escherichia coli ATCC32518 - β-lactamase positive type strain
[25] = tested on: Staphylococcus epidermidis methicillin-resistant clinical isolate
[26] = tested on: Group G Streptococcus - antibiotic-susceptible clinical isolate
[27] = tested on: Candida tropicalis ATCC750 - reference strain
[28] = tested on: EMRSA15 Staphylococcus aureus (MRSA) - SSCmec type 4; conditions: EMRSA15 - SSCmec type 4
[29] = tested on: Streptococcus agalactiae - macrolide-resistant clinical isolate
[30] = tested on: Stenotrophomonas maltophilia - antibiotic-susceptible clinical isolate
[31] = tested on: Haemophilus influenzae β-lactamase negative ampicillin-resistant clinical isolate
[32] = tested on: Methicillin resistant Staphylococcus epidermidis (MRSE) strain ATCC 27626; conditions: ATCC 27626
[33] = tested on: HT2001254 Staphylococcus aureus (MRSA) - PVL positive; conditions: HT2001254 S. aureus (MRSA) PVL positive
[34] = tested on: S. pyogenes
[35] = tested on: Staphylococcus aureus - multi-drug-resistant clinical isolate
[36] = tested on: Candida albicans ATCC90028 - reference strain
[37] = tested on: E. coli
[38] = tested on: Enterococcus faecalis vancomycin-resistant (VanB) clinical isolate

CCCCCCNC(=O)[C@H](CCCNC(=N)N)NC(=O)[C@H](Cc1c(C(C)(C)C)[nH]c2c(C(C)(C)C)cc(C(C)(C)C)cc12)NC(=O)[C@@H](N)CCCNC(=N)N [Compound 8]
MIC [1]: 8 µg/mL (≈ 10.4 µM)
MIC [2]: 4 µg/mL (≈ 5.21 µM)
MIC [3]: 8 µg/mL (≈ 10.4 µM)
MIC [4]: 0.5 µg/mL (≈ 0.651 µM)
MIC [5]: 2 µg/mL (≈ 2.6 µM)
MIC [6]: 4 µg/mL (≈ 5.21 µM)
MIC [7]: 4 µg/mL (≈ 5.21 µM)
MIC [8]: 2 µg/mL (≈ 2.6 µM)
MIC [9]: 4 µg/mL (≈ 5.21 µM)
MIC [10]: 4 µg/mL (≈ 5.21 µM)
MIC [11]: 8 µg/mL (≈ 10.4 µM)
MIC [12]: 4 µg/mL (≈ 5.21 µM)
MIC [13]: 8 µg/mL (≈ 10.4 µM)
MIC [14]: 8 µg/mL (≈ 10.4 µM)
MIC [15]: 8 µg/mL (≈ 10.4 µM)
MIC [16]: 8 µg/mL (≈ 10.4 µM)
MIC [17]: 4 µg/mL (≈ 5.21 µM)
MIC [18]: 4 µg/mL (≈ 5.21 µM)
MIC [19]: 4 µg/mL (≈ 5.21 µM)
MIC [20]: 4 µg/mL (≈ 5.21 µM)
MIC [21]: 8 µg/mL (≈ 10.4 µM)
MIC [22]: 4 µg/mL (≈ 5.21 µM)
MIC [23]: 4 µg/mL (≈ 5.21 µM)
MIC [24]: 8 µg/mL (≈ 10.4 µM)
MIC [25]: 2 µg/mL (≈ 2.6 µM)
MIC [26]: 8 µg/mL (≈ 10.4 µM)
MIC [27]: 4 µg/mL (≈ 5.21 µM)
MIC [28]: 4 µg/mL (≈ 5.21 µM)
MIC [29]: 8 µg/mL (≈ 10.4 µM)
MIC [30]: 4 µg/mL (≈ 5.21 µM)
MIC [31]: 8 µg/mL (≈ 10.4 µM)
MRSE (MIC) [32]: <1 µg/mL
MIC [33]: 4 µg/mL (≈ 5.21 µM)
S. pyogenes (MIC) [34]: 2 µg/mL
MIC [35]: 4 µg/mL (≈ 5.21 µM)
MIC [36]: 4 µg/mL (≈ 5.21 µM)
E. coli (MIC) [37]: 5 µg/mL
MIC [38]: 8 µg/mL (≈ 10.4 µM)
